Experimental data from the supplement of paper PMC10307832.

Experiments:
Assay in all cases: relative viability (nuclei count vs DMSO), 5 days (fraction); higher = more cells survive
[1] = compound: CN(c1ncccc1CNc1nc(Nc2ccc3c(c2)CC(=O)N3)ncc1C(F)(F)F)S(C)(=O)=O + Cc1nc(NC(=O)N2CCC[C@H]2C(N)=O)sc1-c1ccnc(C(C)(C)C(F)(F)F)c1 [Alpelisib] (partner 2 µM)
Summary of the method: (§1)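 Lung cancer cell lines, seeded in 1536-well plates, were treated the following day by pin tool with a single drug or with five library-drug doses (not always all listed) in √10 steps on top of a fixed anchor-drug dose. Cells were fixed and nuclei stained in one step after 5 days, and nuclei were counted. Relative viability is the nuclei count for treated wells divided by that for vehicle wells, reported as medians of duplicate plates.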

[2] = compound: CN(c1ncccc1CNc1nc(Nc2ccc3c(c2)CC(=O)N3)ncc1C(F)(F)F)S(C)(=O)=O + CC(C)C[C@H](NC(=O)[C@H](Cc1ccccc1)NC(=O)c1cnccn1)B(O)O [Bortezomib] (partner 0.002 µM)
Summary of the method: as §1

[3] = compound: CN(c1ncccc1CNc1nc(Nc2ccc3c(c2)CC(=O)N3)ncc1C(F)(F)F)S(C)(=O)=O + CC(=O)c1c(C)c2cnc(Nc3ccc(N4CCNCC4)cn3)nc2n(C2CCCC2)c1=O [Palbociclib] (partner 0.5 µM)
Summary of the method: as §1

[4] = compound: CN(c1ncccc1CNc1nc(Nc2ccc3c(c2)CC(=O)N3)ncc1C(F)(F)F)S(C)(=O)=O + Cc1nc(Nc2ncc(C(=O)Nc3c(C)cccc3Cl)s2)cc(N2CCN(CCO)CC2)n1 [Dasatinib] (partner 0.075 µM)
Summary of the method: as §1

Cell Line | relative viability ([1]; first compound 0.01 µM) | relative viability ([1]; first compound 0.03162 µM) | relative viability ([1]; first compound 0.1 µM) | relative viability ([1]; first compound 0.3162 µM) | relative viability ([1]; first compound 1 µM) | relative viability ([2]; first compound 0.01 µM) | relative viability ([2]; first compound 0.03162 µM) | relative viability ([2]; first compound 0.1 µM) | relative viability ([2]; first compound 0.3162 µM) | relative viability ([2]; first compound 1 µM) | relative viability ([3]; first compound 0.01 µM) | relative viability ([3]; first compound 0.03162 µM) | relative viability ([3]; first compound 0.1 µM) | relative viability ([3]; first compound 0.3162 µM) | relative viability ([3]; first compound 1 µM) | relative viability ([4]; first compound 0.01 µM) | relative viability ([4]; first compound 0.03162 µM) | relative viability ([4]; first compound 0.1 µM) | relative viability ([4]; first compound 0.3162 µM) | relative viability ([4]; first compound 1 µM)
H3255 | 1.04 | 0.853 | 0.617 | 0.468 | 0.772 | 0.758 | 0.783 | 0.819 | 0.505 | 0.784 | 0.312 | 0.316 | 0.345 | 0.327 | 0.295 | 0.368 | 0.347 | 0.356 | 0.385 | 0.378
LXF-289 | 1.05 | 1.07 | 1.07 | 0.988 | 0.947 | 1.05 | 1.01 | 0.991 | 0.989 | 0.978 | 0.63 | 0.592 | 0.567 | 0.639 | 0.582 | 0.187 | 0.181 | 0.129 | 0.12 | 0.121
UMC-11 | 1 | 1.06 | 0.901 | 0.809 | 0.787 | 0.795 | 0.634 | 0.649 | 0.589 | 0.672 | 0.316 | 0.346 | 0.394 | 0.317 | 0.34 | 0.449 | 0.531 | 0.41 | 0.426 | 0.379
LC-2-ad | 0.789 | 0.714 | 0.883 | 0.902 | 0.877 | 1.04 | 1 | 1.06 | 0.961 | 0.799 | 0.523 | 0.451 | 0.522 | 0.473 | 0.463 | 0.414 | 0.484 | 0.492 | 0.399 | 0.335
A-427 | 1.09 | 1.15 | 1.02 | 1.15 | 1.08 | 1.09 | 1.01 | 0.998 | 0.942 | 0.965 | 0.529 | 0.491 | 0.516 | 0.546 | 0.491 | 0.628 | 0.864 | 0.713 | 0.823 | 0.725
NCI-H322M | 0.821 | 0.79 |  | 0.902 | 0.96 | 1.26 | 1.41 |  | 1.38 | 1.44 | 0.481 | 0.503 | 0.529 | 0.475 | 0.488 | 0.205 | 0.178 | 0.223 | 0.199 | 0.219
HCC-366 | 0.35 | 0.471 | 0.455 | 0.389 | 0.309 | 0.927 | 1.24 | 1.09 | 1.02 | 1.06 | 0.41 | 0.391 | 0.342 | 0.336 | 0.316 | 0.541 | 0.904 | 0.598 | 0.644 | 0.687
NCI-H1975 | 0.66 | 0.592 | 0.611 | 0.67 | 0.59 | 0.423 | 0.449 | 0.44 | 0.395 | 0.276 | 0.602 | 0.639 | 0.712 | 0.532 | 0.502 | 0.359 | 0.272 | 0.28 | 0.27 | 0.262
